According to US20070191490A1, “Withacnistin compounds for treatment of cancer” (priority 2006, published 2007):
Values joined by “and” are separate entries in the source; they are usually repeats but may differ in a detail not shown here. Equal values may be shown once. Read-outs that look alike come from different tables or passages of the source.

Columns and labels:
[1] = system: phosphotyrosine-STAT3; experiment: Inhibition of phosphotyrosine-STAT3 levels in tumor cell lines (Western blotting); type: cell-based, human
Protocol: (§1) Western blotting. Treated cell samples were lysed in 30 mM HEPES, pH 7.5, 10 mM NaCl, 5 mM MgCl2, 25 mM NaF, 1 mM EGTA, 1% Triton X-100, 10% glycerol, 2 mM sodium orthovanadate, 10 μg/ml aprotinin, 10μ/ml soybean trypsin inhibitor, 25 μg/ml leupeptin, 2 mM PMSF, and 6.4 mg/ml p-nitrophenylphosphate. Phospho-STAT3, phospho-AKT, phospho-Src, and phospho-p42/p44 MAPK antibodies were obtained from Cell Signaling Technologies (Cambridge, Mass., USA). Phospho-JNK and whole STAT3 antibodies were purchased from Santa Cruz Biotechnology (Santa Cruz, Calif., USA); phospho-JAK2 antibody came from Upstate Biotechnology (Lake Placid, N.Y., USA). Membranes were blocked in either 5% milk in phosphate-buffered saline (PBS), pH 7.4, containing 0.1% Tween-20 (PBS-T) or 1% BSA in tris-buffered saline (TBS), pH 7.5, containing 0.1% Tween-20 (TBS-T). Phospho-specific antibodies (excepting P-MAPK and P-JNK) were incubated in 1% BSA in TBS-T while all other antibodies were diluted in 5% milk in PBS-T for either 2 h at room temperature or overnight at 4° C. HRP-conjugated secondary antibodies (Jackson ImmunoResearch, West Grove, Pa., USA) were diluted in 5% milk in either PBS-T or TBS-T at 1:1000 dilution for 1 h at room temperature. Western blots were visualized using enhanced chemiluminescence.
(§2) To this end, A549 cells (a human non-small-cell lung carcinoma line) were treated with either vehicle, cucurbitacin analogs A, B, E, or I, or withacnistin mixture (10 ∥M) for 4 hours and the cell lysates processed for Western blotting with antiphosphotyrosine STAT3 (Y705) antibody or antiphosphotyrosine JAK2 (Y1007, Y1008) antibody as described under Materials and Methods.
(§3) As further support of the specific antiphosphotyrosine STAT3, but not antiphosphotyrosine JAK2, activity of withacnistin, A549 cells, as well as two breast carcinoma cell lines (MDA-MB-435 and MDA-MB-468) that also express constitutively activated JAK2 and STAT3, were treated with the withacnistin mixture at various concentrations, and determined IC50 values of inhibition of STAT3 and JAK2 activation.

[2] = system: phosphotyrosine-JAK2; experiment: Inhibition of phosphotyrosine-JAK2 levels in tumor cell lines (Western blotting); type: cell-based, human; conditions: for levels of P-JAK2: A549 cells, 10 μM, 4 hours
Protocol: as §1, §2, §3

[3] = system: A549 tumors; experiment: Antitumor activity in nude mouse xenograft model, A549; type: in vivo; conditions: nude mice
Excerpt: (§4) Antitumor activity in the nude mouse tumor xenograft model. Nude mice (Charles River, Wilmington, Mass., USA) were maintained in accordance with the Institutional Animal Care and Use Committee (IACUC) procedures and guidelines. A549 cells were harvested, resuspended in PBS, and injected subcutaneously (s.c.) into the right and left flank (1×10^7 cells per flank) of 8-week-old female nude mice as reported previously (Blaskovich, M. A. et al. Cancer Res., 2003, 63:1270-1279). When tumors reached about 150 mm^3, animals were randomized (four animals per group; two tumors per animal) and dosed intraperitoneally (i.p.) either with cucurbitacin analogs (0.5 or 1 mg/kg/day, i.p.) in 20% DMSO in water or with an equal volume of vehicle control. The tumor volumes were determined by measuring the length (l) and the width (w) and calculating the volume (V=lw^2/2) as described previously (Blaskovich, M. A. et al. Cancer Res., 2003, 63:1270-1279). Statistical significance between control and treated animals were evaluated by using Student's t-test.
(§5) To determine the ability of the cucurbitacin analogs and withacnistin to inhibit tumor growth in vivo, the antitumor activity of the cucurbitacin analogs and withacnistin against both A549 and v-Src/3T3 tumors in a nude mouse xenograft model was evaluated. When the tumors became palpable (at volumes of approximately 100-150 mm^3), the mice were treated either with vehicle control or 1 mg/kg/day of the cucurbitacins or the withacnistin mixture. Tumor volumes were monitored by caliper measurement as previously described (Blaskovich, M. A. et al. Cancer Res., 2003, 63:1270-1279) and under Materials and Methods.

[4] = system: v-Src/3T3 tumors; experiment: Antitumor activity in nude mouse xenograft model, v-Src/3T3; type: in vivo; conditions: v-Src/3T3 xenograft, nude mice
Excerpt: as §4, §5
Withacnistin inhibited 57% of tumor growth while Cuc I, B, and E inhibited 45, 40, and 42% of tumor growth, respectively (FIG. 3 and Table 2).

[5] = 0.5 mg/kg/day i.p., 0.5 mg/kg/day
[6] = 1 mg/kg/day i.p., Wit = withacnistin mixture

Row | Compound | levels of P-STAT3 [1] | levels of P-JAK2 [2] | % Inhibition of tumor growth [3, 5] | % Inhibition of tumor growth [4, 5] | levels of P-STAT3 ([1]; A549 cells, 10 μM, 4 hours) | % Inhibition of tumor growth [3, 6] | % Inhibition of tumor growth [4, 6] | P-STAT3 levels ([1]; A549 cells (FIG. 8A)) | P-JAK2 levels ([2]; A549 cells (FIG. 8A))
1 | CC(=O)OC(C)(C)/C=C/C(=O)[C@](C)(O)[C@H]1[C@H](O)C[C@@]2(C)[C@@H]3CC=C4[C@H](C[C@H](O)C(=O)C4(C)C)[C@]3(C)C(=O)C[C@]12C [Cuc B, cucurbitacin B] | inhibited | inhibited | 53.6% and 53.6^b % | 40% and 40^a % |  |  |  |  | 
2 | CC(=O)OC(C)(C)/C=C/C(=O)[C@](C)(O)[C@H]1[C@H](O)C[C@@]2(C)[C@@H]3CC=C4[C@@H](C=C(O)C(=O)C4(C)C)[C@]3(C)C(=O)C[C@]12C [Cuc E, cucurbitacin E] |  | inhibited |  |  | inhibited | 48.5% | 42% |  | 
3 | 3-ethoxy-2,3-dihydrowithacnistin [EDH-Wit] |  |  |  |  |  |  |  | suppressed neither | suppressed neither
